Patent US20250101038A1, “COMPOUNDS” (priority 2021, published 2025)
Values joined by “and” are separate entries in the source; they are usually repeats but may differ in a detail not shown here. Identical values can stand only once. Like-named read-outs stand apart in the source and are kept apart here.

What was measured:
5-HT2A receptor = target: T1, 5-HT2A receptor (Homo sapiens, UniProt P28223); experiment: FLIPR Ca2+ flux functional assay, 5-HT2A; format: cell-based; settings: agonist activity, Ca2+ flux, HEK293 cells
T1 construct: host or cells: HEK293
T1 sequence (P28223 whole entry): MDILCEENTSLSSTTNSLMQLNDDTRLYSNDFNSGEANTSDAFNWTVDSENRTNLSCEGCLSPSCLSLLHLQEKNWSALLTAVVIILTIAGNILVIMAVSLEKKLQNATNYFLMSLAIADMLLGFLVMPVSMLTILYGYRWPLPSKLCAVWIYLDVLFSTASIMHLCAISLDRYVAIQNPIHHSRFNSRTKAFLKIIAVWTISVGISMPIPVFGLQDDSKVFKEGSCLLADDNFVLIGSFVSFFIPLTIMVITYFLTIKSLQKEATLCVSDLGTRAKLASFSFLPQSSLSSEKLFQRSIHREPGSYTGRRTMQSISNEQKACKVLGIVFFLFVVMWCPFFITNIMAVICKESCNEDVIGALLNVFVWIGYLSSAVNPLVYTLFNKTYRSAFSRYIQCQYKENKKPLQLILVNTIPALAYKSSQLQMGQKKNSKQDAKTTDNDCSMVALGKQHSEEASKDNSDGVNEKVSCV

5-HT2B receptor = target: T2, 5-HT2B receptor (Homo sapiens, UniProt P41595); experiment: cell-based; settings: agonist activity, Ca2+ flux, CHO-K1 cells
T2 construct: host or cells: CHO-K1
T2 sequence (P41595 whole entry): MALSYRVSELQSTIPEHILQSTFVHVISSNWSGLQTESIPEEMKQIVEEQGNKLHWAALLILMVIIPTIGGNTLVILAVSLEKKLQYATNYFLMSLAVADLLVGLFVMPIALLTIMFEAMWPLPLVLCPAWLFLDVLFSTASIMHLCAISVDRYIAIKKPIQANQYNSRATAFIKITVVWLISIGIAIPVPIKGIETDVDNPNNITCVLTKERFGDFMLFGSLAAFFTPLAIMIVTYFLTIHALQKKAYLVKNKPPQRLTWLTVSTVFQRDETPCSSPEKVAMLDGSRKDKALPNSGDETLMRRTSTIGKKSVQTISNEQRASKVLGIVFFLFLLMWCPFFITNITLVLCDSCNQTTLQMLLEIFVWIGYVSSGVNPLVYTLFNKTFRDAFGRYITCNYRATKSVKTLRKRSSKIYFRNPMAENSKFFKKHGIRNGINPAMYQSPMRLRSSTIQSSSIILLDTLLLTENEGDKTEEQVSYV

[1] = In vivo pharmacokinetics, plasma and brain exposure after IP dosing; set-up: species or system male C57BL/6 mice; settings: for B:P Ratio, Individual / Plasma Concentration, Individual / concentration at 0.5 h / concentration at 0.083 h / concentration at 4 h / Kp at 0.083 h / Kp at 0.5 h / Kp at 4 h: 10 mg/kg; for Kp at 0.083 h / Kp at 0.5 h / Kp at 4 h: brain/plasma; for Cmax / Tmax / AUC(0-inf) / half-life: mouse, male C57BL/6 mice; for AUC(0-inf): read-out: Plasma AUC0-inf; for half-life: read-out: Apparent T1/2 (converted)
Experimental: The systemic exposure of selected examples was studied in non-fasted male C57BL/6 mice weighing between 18.9-25.5 g. Mice had access to food and water ad libitum throughout the pre- and post-dose sampling period.
On the day of dosing, the formulation of each compound was prepared by dissolving solid compound in phosphate buffer saline (50 mM) using vortexing, creating colourless solutions (pH 6.4-6.5) for each compound.
Compounds were dosed to mice by IP injection (10 mL/kg dose volume via a 27G needle; n=9 mice per compound) and blood samples were collected at 5 and 30 min; 1, 2 and 4 h post-dose (n=3 mice per time point for each compound). A maximum of three blood samples were obtained from each mouse, with plasma samples being taken via submandibular bleed (approximately 120 μL). Once collected, blood samples were centrifuged immediately, supernatant plasma was removed, and stored at −80° C. until analysis by LCMS. In addition, at the 5 and 30 min and 4 h post-dose time points, the whole brain was rapidly removed from the carcass soon after the blood collection. The whole brains were blotted to remove excess blood, placed into pre-weighed polypropylene vials, and weighed. The brains were snap frozen in dry ice and subsequently stored frozen (−80° C.) until analysis.
Concentrations of test compound in plasma and tissue samples were determined using an LCMS/MS method validated for linearity, accuracy, precision, matrix factor and recovery (Table 2). Test compound standard solutions were diluted from a concentrated stock solution (32 mM in H2O) using 50% can in H2O (v/v) and a calibration curve was prepared in a matched matrix to the test samples.
Plasma: The plasma calibration curve was prepared by spiking aliquots of blank mouse plasma (25 μL) with test compound standard solutions (5 μL) and internal standard solution (5 μL of diazepam, 5 μg/mL in 50% acetonitrile in water). Test plasma samples (25 μL) were thawed, mixed, and then spiked with internal standard solution (5 μL). Plasma protein precipitation was performed by addition of acetonitrile (3-fold volume ratio) and thorough vortex mixing. Samples were centrifuged (RCF=9391×g) for 3 minutes and the supernatant (90 μL) was collected for analysis.
Tissue: Pre-weighed tissue samples (brain) were homogenised using a glass rod in buffer containing an EDTA/potassium fluoride solution (0.1 M/4 mg/mL) as a stabilisation cocktail to minimise the potential for ex vivo degradation (3 mL cocktail/g tissue). The tissue homogenate was briefly centrifuged (RCF=79×g) for 10 seconds to separate the foam layer before transferring an aliquot of the tissue homogenate (200 μL) to a fresh Eppendorf tube for sample extraction. Calibration standards were prepared by spiking blank brain homogenate (200 μL) with the solution standards (10 μL) and the internal standard (10 μL). Study samples were similarly prepared, except that acetonitrile (10 μL) was added instead of solution standards to maintain the same volume. Protein precipitation was carried out by the addition of a 3-fold volume of acetonitrile, followed by vortex mixing and centrifugation (RCF=9391×g) for 3 min to recover the supernatant for analysis.
Replicate analysis: Triplicate analytical replicate (ARs) samples were prepared similarly to the standards for each sample type at three concentrations (50, 500 and 2,000 ng/ml) and repeat injections of these ARs were included throughout the analytical run to assess assay performance. The extraction of the test compound from the standards and ARs were conducted as described above.

5-HT2C receptor = target: T3, 5-HT2C receptor (Homo sapiens, UniProt P28335); experiment: cell-based; settings: agonist activity, Ca2+ flux, HEK293 cells
T3 construct: host or cells: HEK293
T3 sequence (P28335 33-458): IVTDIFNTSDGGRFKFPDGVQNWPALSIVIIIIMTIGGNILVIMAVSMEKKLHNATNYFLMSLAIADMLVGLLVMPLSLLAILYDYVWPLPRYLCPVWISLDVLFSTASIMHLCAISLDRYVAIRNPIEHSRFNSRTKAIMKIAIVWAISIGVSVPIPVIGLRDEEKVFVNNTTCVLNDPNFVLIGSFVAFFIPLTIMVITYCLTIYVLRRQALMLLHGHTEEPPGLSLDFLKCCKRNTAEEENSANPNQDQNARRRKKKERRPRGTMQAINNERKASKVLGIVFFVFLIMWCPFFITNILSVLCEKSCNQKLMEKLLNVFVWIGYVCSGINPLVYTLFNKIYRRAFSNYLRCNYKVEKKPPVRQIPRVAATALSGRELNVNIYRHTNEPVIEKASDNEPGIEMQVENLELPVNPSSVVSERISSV

[2] = 0.083 h, IP 10 mg/kg, individual mouse
[3] = 0.083 h, IP 10 mg/kg, individual mouse, read-out: Brain Parenchyma Concentration, Individual
[4] = 0.5 h, IP 10 mg/kg, individual mouse
[5] = 0.5 h, IP 10 mg/kg, individual mouse, read-out: Brain Parenchyma Concentration, Individual
[6] = 4 h, IP 10 mg/kg, individual mouse
[7] = 4 h, IP 10 mg/kg, individual mouse, read-out: Brain Parenchyma Concentration, Individual
[8] = male, C57BL/6, mouse, brain, ip, 0.083 h, n = 3, read-out: Brain Parenchyma Concentration, Mean ± SD
[9] = male, C57BL/6, mouse, brain, ip, 0.5 h, individual mouse, read-out: Brain Parenchyma Concentration, Individual
[10] = male, C57BL/6, mouse, brain, ip, 0.5 h, n = 3, read-out: Brain Parenchyma Concentration, Mean ± SD
[11] = male, C57BL/6, mouse, brain, ip, 4 h, n = 3, read-out: Brain Parenchyma Concentration, Mean ± SD
[12] = male, C57BL/6, mouse, ip, 0.083 h, individual mouse, read-out: B:P Ratio, Individual
[13] = male, C57BL/6, mouse, ip, 0.083 h, n = 3, read-out: B:P Ratio, Mean ± SD
[14] = male, C57BL/6, mouse, ip, 0.5 h, individual mouse, read-out: B:P Ratio, Individual
[15] = male, C57BL/6, mouse, ip, 0.5 h, n = 3, read-out: B:P Ratio, Mean ± SD
[16] = male, C57BL/6, mouse, ip, 4 h, individual mouse, read-out: B:P Ratio, Individual
[17] = male, C57BL/6, mouse, ip, 4 h, n = 3, read-out: B:P Ratio, Mean ± SD
[18] = male, C57BL/6, mouse, plasma, ip, 0.083 h, individual mouse, read-out: Plasma Concentration, Individual
[19] = male, C57BL/6, mouse, plasma, ip, 0.083 h, n = 3, read-out: Plasma Concentration, Mean ± SD
[20] = male, C57BL/6, mouse, plasma, ip, 0.5 h, individual mouse, read-out: Plasma Concentration, Individual
[21] = male, C57BL/6, mouse, plasma, ip, 0.5 h, n = 3, read-out: Plasma Concentration, Mean ± SD
[22] = male, C57BL/6, mouse, plasma, ip, 4 h, n = 3, read-out: Plasma Concentration, Mean ± SD

SMILES	Emax (5-HT2A receptor)	Emax (5-HT2B receptor)	B:P Ratio, Individual [1, 2]	Plasma Concentration, Individual [1, 2]	concentration at 0.5 h [1, 3]	B:P Ratio, Individual [1, 4]	Plasma Concentration, Individual [1, 4]	concentration at 0.5 h [1, 5]	B:P Ratio, Individual [1, 6]	Plasma Concentration, Individual [1, 6]	concentration at 0.5 h [1, 7]	concentration at 0.083 h [1, 8]	concentration at 0.5 h [1, 9]	concentration at 0.5 h [1, 10]	concentration at 4 h [1, 11]	Kp at 0.083 h [1, 12]	Kp at 0.083 h [1, 13]	Kp at 0.5 h [1, 14]	Kp at 0.5 h [1, 15]	Kp at 4 h [1, 16]	also measured
CCN(C)CCc1c[nH]c2c(C)cc(OC)cc12 [Example P-51, N-ethyl-2-(5-methoxy-7-methyl-1H-indol-3-yl)-N-methylethan-1-amine]	69.2%	0.85%	6.1 and 4.0	5.38 µM and 7.55 µM	33.0 µM and 30.4 µM	11 and 9.2	4.49 µM and 3.79 µM	49.3 µM and 35.0 µM	8.4 and 8.7	0.0254 µM and 0.0505 µM and 0.111 µM	0.230 µM and 0.424 µM and 0.958 µM	30.7 ± 2.2 µM	25.5 µM	36.6 ± 12 µM	0.538 ± 0.377 µM	4.5	4.9 ± 1.1	7.4	9.2 ± 1.8	9.1	concentration at 0.083 h ([1]; male, C57BL/6, mouse, brain, ip, 0.083 h, individual mouse, read-out: Brain Parenchyma Concentration, Individual): 28.6 µM; Kp at 4 h [1, 17]: 8.7 ± 0.33; concentration at 0.083 h [1, 18]: 6.37 µM; concentration at 0.083 h [1, 19]: 6.43 ± 1.09 µM; concentration at 0.5 h [1, 20]: 3.46 µM; concentration at 0.5 h [1, 21]: 3.91 ± 0.529 µM; concentration at 4 h [1, 22]: 0.0622 ± 0.0439 µM; Cmax ([1]; plasma, IP 10 mg/kg): 6.43 µM; Tmax ([1]; plasma, IP 10 mg/kg): 4.98 min; AUC(0-inf) ([1]; plasma, IP 10 mg/kg): 5.39 µM·h; half-life ([1]; IP 10 mg/kg, plasma): 36 min; Emax (5-HT2C receptor): 57.3%
CCN(C)CCc1c[nH]c2ccc(OC)c(C)c12 [Example P-37, N-ethyl-2-(5-methoxy-4-methyl-1H-indol-3-yl)-N-methylethan-1-amine]	80.3%	30.9%	6.9 and 8.6	2.21 µM and 2.12 µM	31.6 µM and 15.2 µM and 18.1 µM	18 and 16	1.15 µM and 1.48 µM	20.6 µM and 24.3 µM	15	0.0091 µM and 0.0104 µM	0.134 µM and 0.152 µM	21.6 ± 8.76 µM	25.9 µM	23.6 ± 2.74 µM	0.129 ± 0.0255 µM	9.4	8.3 ± 1.3	20	18 ± 2	13	concentration at 4 h ([1]; male, C57BL/6, mouse, brain, ip, 4 h, individual mouse, read-out: Brain Parenchyma Concentration, Individual): 0.102 µM; Kp at 4 h [1, 17]: 14 ± 1.2; concentration at 0.083 h [1, 18]: 3.36 µM; concentration at 0.083 h [1, 19]: 2.56 ± 0.0691 µM; concentration at 0.5 h [1, 20]: 1.28 µM; concentration at 0.5 h [1, 21]: 1.3 ± 0.162 µM; concentration at 4 h ([1]; male, C57BL/6, mouse, plasma, ip, 4 h, individual mouse, read-out: Plasma Concentration, Individual): 0.0081 µM; concentration at 4 h [1, 22]: 0.0092 ± 0.0012 µM; Cmax ([1]; plasma, IP 10 mg/kg): 2.56 µM; Tmax ([1]; plasma, IP 10 mg/kg): 4.98 min; AUC(0-inf) ([1]; plasma, IP 10 mg/kg): 1.72 µM·h; half-life ([1]; IP 10 mg/kg, plasma): 30 min; Emax (5-HT2C receptor): 53.1%
